Reference: US9635854B2, “Controlling red rice with mesotrione” (FMC Corporation, priority 2014, dated 2017)

Legend:
Assay type in all cases: in vivo
[1] = system: rice (Wells variety); assay: Pre-emergent weed control in direct-seeded flooded rice (Example 2), rice injury; conditions: for % Rice Injury Rice Wells: pre-emergent, flooded, 28 Days After Treatment
Text: (§1) Seeds of crops, rice (Taggart and Wells varieties) and weeds, yellow nutsedge (Cyperus esculentus), barnyardgrass (Echinochloa crus-galli), large crabgrass (Digitaria sanguinalis), hemp sesbania (Sesbania herbacea), Benghal dayflower (Commelina benghalensis), red rice (Oryza sativa) and broadleaf signalgrass (Urochloa platyphylla) were planted in two gallon pots containing top soil. Each pot was watered well before the application of mesotrione (Callisto® Herbicide from Syngenta Crop Protection).

[2] = system: rice (Taggart variety); assay: as above; conditions: for % Rice Injury Rice Taggert: pre-emergent, flooded, 28 Days After Treatment
Text: as §1

[3] = system: hemp sesbania (Sesbania herbacea); assay: Pre-emergent weed control in direct-seeded flooded rice (Example 2); conditions: 28 Days After Treatment
Text: as §1

[4] = system: yellow nutsedge; assay: Direct seeded dryland rice test, pre-emergent (FIG. 2); conditions: pre-emergent treatment at 25 g ai/ha

**Q.** Which results are given for `CS(=O)(=O)c1ccc(C(=O)C2C(=O)CCCC2=O)c([N+](=O)[O-])c1` [Mesotrione, mesotrione]?
**A.** % Rice Injury Rice Wells ([1]; 6 g ai/ha): 0%; % Rice Injury Rice Wells ([1]; 12 g ai/ha): 2%; % Rice Injury Rice Wells ([1]; 25 g ai/ha): 4%; % Rice Injury Rice Wells ([1]; 50 g ai/ha): 5%; % Rice Injury Rice Wells ([1]; 100 g ai/ha): 12%; % Rice Injury Rice Wells ([1]; 200 g ai/ha): 47%; safety on white rice, Wells ([1]; summary of Table 7 data): safe; % Rice Injury Rice Taggert ([2]; 6 g ai/ha): 0%; % Rice Injury Rice Taggert ([2]; 12 g ai/ha): 2%; % Rice Injury Rice Taggert ([2]; 25 g ai/ha): 4%; % Rice Injury Rice Taggert ([2]; 50 g ai/ha): 8%; % Rice Injury Rice Taggert ([2]; 100 g ai/ha): 10%; % Rice Injury Rice Taggert ([2]; 200 g ai/ha): 53%; safety on white rice, Taggart ([2]; summary of Table 7 data): safe; % weed control Hemp ([3]; 6 g ai/ha): 0%; % weed control Hemp ([3]; 12 g ai/ha): 30%; % weed control Hemp ([3]; 25 g ai/ha): 13%; % weed control Hemp ([3]; 50 g ai/ha): 45%; % weed control Hemp ([3]; 100 g ai/ha): 98%; % weed control Hemp ([3]; 200 g ai/ha): 100%; yellow nutsedge control (words, FIG. 2) [4]: controlled
